The results in this text go back to patent US20230049231A1 (priority 2019, published 2023).

A value given as a limit tells only on which side of the number the result lay.

One assay concerns the target T1, Kv1.3 potassium channel (Homo sapiens, UniProt P22001).
T1 construct: expressed in transfected cells
In words: Kv1.3 potassium channel blocker activity, automated whole-cell patch clamp (Patchliner). Format: cell-based. Here is the method:
This assay is used to evaluate the disclosed compounds' activities as Kv1.3 potassium channel blockers.
CHO-K1 cells stably expressing Kv1.3 were grown in DMEM containing 10% heat-inactivated FBS, 1 mM sodium pyruvate, 2 mM L-glutamine and G418 (500 μg/ml). Cells were grown in culture flasks at 37° C. in a 5% CO2-humidified incubator.
(§1) The cells were bathed in an extracellular solution containing 140 mM NaCl, 4 mM KCl, 2 mM CaCl2), 1 mM MgCl2, 5 mM glucose, and 10 mM HEPES; pH adjusted to 7.4 with NaOH; 295-305 mOsm. The internal solution contained 50 mM KCl, 10 mM NaCl, 60 mM KF, 20 mM EGTA, and 10 mM HEPES; pH adjusted to 7.2 with KOH; 285 mOsm. All compounds were dissolved in DMSO at 30 mM. Compound stock solutions were freshly diluted with external solution to concentrations of 30 nM, 100 nM, 300 nM, 1 μM, 3 μM, 10 μM, 30 μM and 100 μM. The highest content of DMSO (0.3%) was present in 100 μM.
The currents were evoked by applying 100 ms depolarizing pulses from −90 mV (holding potential) to +40 mV were applied with 0.1 Hz frequency. Control (compound-free) and compound pulse trains for each compound concentration applied contained 20 pulses.
10-second breaks were used between pulse trains (see Table 2 below).
Whole-cell current recordings and compound application were enabled by means of an automated patch clamp platform Patchliner (Nanion Technologies GmbH). EPC 10 patch clamp amplifier (HEKA Elektronik Dr. Schulze GmbH) along with Patchmaster software (HEKA Elektronik Dr. Schulze GmbH) was used for data acquisition. Data were sampled at 10 kHz without filtering. Passive leak currents were subtracted online using a P/4 procedure (HEKA Elektronik Dr. Schulze GmbH). Increasing compound concentrations were applied consecutively to the same cell without washouts in between. Total compound incubation time before the next pulse train was not longer than 10 seconds. Peak current inhibition was observed during compound equilibration.
(§2) AUC and peak values were obtained with Patchmaster (HEKA Elektronik Dr. Schulze GmbH). To determine IC50, the last single pulse in the pulse train corresponding to a given compound concentration was used. Obtained AUC and peak values in the presence of compound were normalized to control values in the absence of compound. Using Origin (OridinLab), IC50 was derived from data fit to Hill equation: Icompound/Icontrol=(100−A)/(1+([compound]/IC50)nH)+A, where IC50 value is the concentration at which current inhibition is half-maximal, [compound] is the applied compound concentration, A is the fraction of current that is not blocked and nH is the Hill coefficient.

The next assay deals with T2, hERG channel (Homo sapiens, UniProt Q12809).
T2 construct: expressed in transfected cells
T2 sequence (Q12809 whole entry): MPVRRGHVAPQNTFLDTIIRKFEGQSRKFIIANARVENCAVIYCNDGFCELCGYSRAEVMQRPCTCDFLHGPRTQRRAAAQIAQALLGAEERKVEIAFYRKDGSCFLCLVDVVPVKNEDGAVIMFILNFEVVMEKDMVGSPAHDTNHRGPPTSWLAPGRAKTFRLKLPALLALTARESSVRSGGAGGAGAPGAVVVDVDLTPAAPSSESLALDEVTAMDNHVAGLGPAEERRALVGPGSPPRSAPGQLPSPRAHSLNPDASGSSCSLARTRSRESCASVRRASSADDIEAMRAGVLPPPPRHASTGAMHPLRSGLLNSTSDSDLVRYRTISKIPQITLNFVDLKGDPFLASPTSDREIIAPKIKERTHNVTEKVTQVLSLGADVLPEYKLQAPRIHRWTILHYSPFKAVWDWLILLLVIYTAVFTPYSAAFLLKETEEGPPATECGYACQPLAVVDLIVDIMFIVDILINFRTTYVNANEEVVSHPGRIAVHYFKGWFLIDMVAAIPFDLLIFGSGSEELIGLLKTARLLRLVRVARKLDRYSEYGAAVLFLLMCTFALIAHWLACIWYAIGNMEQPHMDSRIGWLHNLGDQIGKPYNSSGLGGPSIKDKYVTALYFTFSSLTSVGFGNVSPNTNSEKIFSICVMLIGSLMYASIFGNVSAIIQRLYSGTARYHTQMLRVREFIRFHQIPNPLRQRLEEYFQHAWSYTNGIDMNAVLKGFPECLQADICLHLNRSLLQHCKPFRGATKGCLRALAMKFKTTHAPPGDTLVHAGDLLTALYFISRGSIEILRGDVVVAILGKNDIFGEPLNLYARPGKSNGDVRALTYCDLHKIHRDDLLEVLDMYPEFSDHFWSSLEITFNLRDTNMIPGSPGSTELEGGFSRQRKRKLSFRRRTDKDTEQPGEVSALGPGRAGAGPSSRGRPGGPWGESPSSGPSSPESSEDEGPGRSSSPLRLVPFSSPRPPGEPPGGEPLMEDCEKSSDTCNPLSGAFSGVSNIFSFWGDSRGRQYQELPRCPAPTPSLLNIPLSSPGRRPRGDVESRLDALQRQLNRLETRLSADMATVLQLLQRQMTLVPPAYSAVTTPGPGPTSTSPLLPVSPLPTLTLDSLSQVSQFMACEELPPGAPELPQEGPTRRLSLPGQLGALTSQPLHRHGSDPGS
The experiment in a line: hERG electrophysiology, automated whole-cell patch clamp (Patchliner). Format: cell-based. The following applies: hERG channel, whole-cell patch clamp. Here is the method: This assay is used to evaluate the disclosed compounds' inhibition activities against the hERG channel.
CHO-K1 cells stably expressing hERG were grown in Ham's F-12 Medium with glutamine containing 10% heat-inactivated FBS, 1% penicillin/streptomycin, hygromycin (100 μg/ml) and G418 (100 μg/ml). Cells were grown in culture flasks at 37° C. in a 5% CO2-humidified incubator.
as §1
The voltage protocol (see Table 3) was designed to simulate voltage changes during a cardiac action potential with a 300 ms depolarization to +20 mV (analogous to the plateau phase of the cardiac action potential), a repolarization for 300 ms to −50 mV (inducing a tail current) and a final step to the holding potential of −80 mV. The pulse frequency was 0.3 Hz. Control (compound-free) and compound pulse trains for each compound concentration applied contained 70 pulses.
Whole-cell current recordings and compound application were enabled by means of an automated patch clamp platform Patchliner (Nanion). EPC 10 patch clamp amplifier (HEKA) along with Patchmaster software (HEKA Elektronik Dr. Schulze GmbH) was used for data acquisition. Data were sampled at 10 kHz without filtering. Increasing compound concentrations were applied consecutively to the same cell without washouts in between.
as §2, with “PEAK” for “peak”, “IC50” for “IC50,”, “Icompound/Icontrol=(100-A)/(1+([compound]/IC50)nH)+A,” for “Icompound/Icontrol=(100−A)/(1+([compound]/IC50)nH)+A,”, “IC50” for “IC50 value”
(Block of hERG is tested as a sign of cardiac risk.)

Where [1] appears, read: Kv1.3 potassium channel, whole-cell patch clamp.
Where [2] appears, read: CHO-K1 cells stably expressing Kv1.3, 100 ms pulses from -90 mV to +40 mV, 0.1 Hz.

T1 sequence (P22001 whole entry): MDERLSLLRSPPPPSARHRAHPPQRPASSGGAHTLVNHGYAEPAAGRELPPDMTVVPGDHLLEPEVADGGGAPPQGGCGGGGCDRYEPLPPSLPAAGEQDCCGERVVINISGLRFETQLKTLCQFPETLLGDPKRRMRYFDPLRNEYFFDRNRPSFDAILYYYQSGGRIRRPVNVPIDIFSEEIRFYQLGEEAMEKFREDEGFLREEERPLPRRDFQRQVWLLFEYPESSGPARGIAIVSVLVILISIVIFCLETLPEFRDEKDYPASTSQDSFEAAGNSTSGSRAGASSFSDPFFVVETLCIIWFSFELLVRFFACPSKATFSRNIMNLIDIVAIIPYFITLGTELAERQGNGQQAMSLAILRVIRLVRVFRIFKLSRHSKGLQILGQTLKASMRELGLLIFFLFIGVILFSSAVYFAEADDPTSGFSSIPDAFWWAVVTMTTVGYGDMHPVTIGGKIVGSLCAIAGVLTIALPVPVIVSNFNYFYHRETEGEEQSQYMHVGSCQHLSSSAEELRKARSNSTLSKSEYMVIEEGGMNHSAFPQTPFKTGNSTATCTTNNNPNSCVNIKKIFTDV

In the case of `O=C1CN(C[C@H]2CCN2)C[C@@H]2C[C@H](c3c(O)ccc(Cl)c3Cl)CN12` (single isomer, unassigned; isomer 2) [Compound 140], the IC50 (as a rule, the concentration needed to halve the response being measured) against Kv1.3 potassium channel (setting [1]) was less than 1000 nM; on hERG channel it was more than 30000 nM.
As to `NC[C@]1(O)CC(=O)N2C[C@@H](c3c(O)ccc(Cl)c3Cl)C[C@H]2C1` (single isomer, unassigned) [Compound 219], the IC50 on Kv1.3 potassium channel (setting [1]) was less than 1000 nM; against hERG channel, more than 30000 nM.
For `N[C@H]1CC2C[C@H](c3c(O)ccc(Cl)c3Cl)CN2C1=O` (single isomer, unassigned) [Compound 248], the IC50 at Kv1.3 potassium channel (setting [1]) was less than 1000 nM; at hERG channel it was less than 10000 nM.
The matching figures for `O=C1CN([C@@H]2COC[C@H]2O)C[C@@H]2C[C@H](c3c(O)ccc(Cl)c3Cl)CN12` (relative stereo) [Compound 155, (7R,8aS)-7-(2,3-dichloro-6-hydroxyphenyl)-2-[(3R,4S)-rel-4-hydroxyoxolan-3-yl]-hexahydropyrrolo[1,2-a]pyrazin-4-one]: less than 1000 nM and more than 30000 nM.
As to `O=C1C[C@H](N2CC[C@@H](O)C2)C[C@@H]2C[C@H](c3c(O)ccc(Cl)c3Cl)CN12` (single isomer, unassigned) [Compound 191], the IC50 at Kv1.3 potassium channel (setting [1]) is less than 1000 nM; against hERG channel, less than 30000 nM.
The like results for `NC(=O)[C@@H]1OC(=O)N2C[C@@H](c3c(O)ccc(Cl)c3Cl)C[C@@H]12` (single isomer, unassigned) [Compound 286] were, in that order, less than 1000 nM and more than 30000 nM.
`O=C1CN([C@@H]2C[C@@H](O)[C@@H](O)C2)C[C@@H]2C[C@H](c3c(O)ccc(Cl)c3Cl)CN12` (relative stereo) [Compound 131, (7R,8aS)-7-(2,3-dichloro-6-hydroxyphenyl)-2-[(1S,3R,4S)-rel-3,4-dihydroxycyclopentyl]-hexahydropyrrolo [1,2-a]pyrazin-4-one]: the IC50 was less than 1000 nM at Kv1.3 potassium channel (setting [1]) and more than 30000 nM against hERG channel.
The like results for `CN(C)[C@@H]1CC(=O)N2C[C@@H](c3c(O)ccc(Cl)c3Cl)C[C@H]2C1` (single isomer, unassigned) [Compound 200] were, in that order, less than 1000 nM and less than 10000 nM.
For `O=C1O[C@H]([C@H](O)CO)[C@@H]2C[C@H](c3c(O)ccc(Cl)c3Cl)CN12` (single isomer, unassigned) [Compound 263], the IC50 against Kv1.3 potassium channel (setting [1]) is less than 1000 nM; at hERG channel it was more than 30000 nM.
`O=C(CO)N1CC(=O)N2CC[C@H](c3c(O)ccc(Cl)c3Cl)C[C@@H]2C1` [Compound 48, (8S,9aR)-8-(2,3-dichloro-6-hydroxyphenyl)-2-(2-hydroxyacetyl)-hexahydro-1H-pyrido[1,2-a]pyrazin-4-one]: the IC50 against Kv1.3 potassium channel (setting [2]) was less than 1000 nM.
At Kv1.3 potassium channel (setting [1]), `O=C1[C@H](O)C[C@@H]2C[C@H](c3c(O)ccc(Cl)c3Cl)CN12` (single isomer, unassigned) [Compound 246] had an IC50 of less than 1000 nM.
The same measure, in the same setting: next, `O=C1C[C@@H](c2cc[nH]n2)C[C@@H]2C[C@H](c3c(O)ccc(Cl)c3Cl)CN12` (single isomer, unassigned) [Compound 213]: less than 1000 nM; `O=C1C(CO)C[C@@H]2C[C@H](c3c(O)ccc(Cl)c3Cl)CN12` (stereo partly drawn) [Compound 247, (6R,7aS)-6-(2,3-dichloro-6-hydroxyphenyl)-2-(hydroxymethyl)-hexahydropyrrolizin-3-one]: less than 1000 nM.
On to `O=C1[C@H](CO)OC[C@@H]2C[C@H](c3c(O)ccc(Cl)c3Cl)CCN12` (single isomer, unassigned) [Compound 43], for which, on Kv1.3 potassium channel (setting [2]), the IC50 is less than 1000 nM.
As for `O=C1N(CCO)C[C@@H]2C[C@H](c3c(O)ccc(Cl)c3Cl)CN12` [Compound 290, (6R,7aS)-6-(2,3-dichloro-6-hydroxyphenyl)-2-(2-hydroxyethyl)hexahydro-3H-pyrrolo[1,2-c]imidazol-3-one], at Kv1.3 potassium channel (setting [1]), the IC50 was less than 10000 nM.
Same read-out and setting: then `O=C1NCCC1N1CC(=O)N2C[C@@H](c3c(O)ccc(Cl)c3Cl)C[C@H]2C1` (stereo partly drawn) [Compound 109, 3-[(7R,8aS)-7-(2,3-dichloro-6-hydroxyphenyl)-4-oxo-hexahydropyrrolo [1,2-a]pyrazin-2-yl]pyrrolidin-2-one], with less than 1000 nM.
At Kv1.3 potassium channel (setting [2]), `C[C@@H](O)CC(=O)N1CC(=O)N2C[C@@H](c3c(O)ccc(Cl)c3Cl)C[C@H]2C1` [Compound 53, (7R,8aS)-7-(2,3-dichloro-6-hydroxyphenyl)-2-[(3R)-3-hydroxybutanoyl]-hexahydropyrrolo[1,2-a]pyrazin-4-one] returned an IC50 of less than 1000 nM.
Still for that read-out and setting: next, `C[C@@H]1C(=O)N2CC[C@@H](c3c(O)ccc(Cl)c3Cl)C[C@H]2CN1C(=O)CO` [Compound 12, (3R,8R,9aS)-8-(2,3-dichloro-6-hydroxyphenyl)-2-(2-hydroxyacetyl)-3-methyloctahydro-4H-pyrido[1,2-a]pyrazin-4-one]: less than 10000 nM.
On Kv1.3 potassium channel (setting [1]), `O=C(CO)N1CC[C@@H]2C[C@H](c3c(O)ccc(Cl)c3Cl)CN2C(=O)C1` [Compound 90, (8R,9aS)-8-(2,3-dichloro-6-hydroxyphenyl)-3-(2-hydroxyacetyl)-hexahydro-1H-pyrrolo[1,2-d][1,4]diazepin-5-one] displayed an IC50 of less than 1000 nM.
The same measure, in the same setting: then `CC(C)(O)[C@H]1OC(=O)N2C[C@@H](c3c(O)ccc(Cl)c3Cl)C[C@@H]12` (single isomer, unassigned) [Compound 255], with less than 1000 nM.
On Kv1.3 potassium channel (setting [2]), `O=C1N[C@H](CO)CN2CC[C@H](c3c(O)ccc(Cl)c3Cl)C[C@H]12` [Compound 19, (3S,8S,9aR)-8-(2,3-dichloro-6-hydroxyphenyl)-3-(hydroxymethyl)-octahydropyrido[1,2-a]pyrazin-1-one] registered an IC50 of less than 10000 nM.
The compound `C=CCN1CC(=O)N2C[C@@H](c3c(O)ccc(Cl)c3Cl)C[C@H]2C1` [Compound 113, (7R,8aS)-7-(2,3-dichloro-6-hydroxyphenyl)-2-(prop-2-en-1-yl)-hexahydropyrrolo [l,2-a]pyrazin-4-one] came in with an IC50 on Kv1.3 potassium channel (setting [1]) of less than 1000 nM.
In turn, `O=C(CO)N1CC(=O)N2C[C@H](c3c(O)ccc(Cl)c3Cl)CC[C@@H]2C1` (relative stereo) [Compound 26, (7S,9aR)-rel-7-(2,3-dichloro-6-hydroxyphenyl)-2-(2-hydroxyacetyl)-hexahydro-1H-pyrido[1,2-a]pyrazin-4-one] returned an IC50 against Kv1.3 potassium channel (setting [2]) of less than 10000 nM.
The compound `O=C(O)C1CC(=O)N2C[C@@H](c3c(O)ccc(Cl)c3Cl)C[C@H]2C1` (stereo partly drawn) [Compound 229, (2R,8aS)-2-(2,3-dichloro-6-hydroxyphenyl)-5-oxo-hexahydro-1H-indolizine-7-carboxylic acid] registered an IC50 against Kv1.3 potassium channel (setting [1]) of less than 1000 nM.
`O=C(NCCO)[C@H]1CC(=O)N2C[C@@H](c3c(O)ccc(Cl)c3Cl)C[C@H]2C1` (single isomer, unassigned) [Compound 233] yielded an IC50 at Kv1.3 potassium channel (setting [1]) of less than 1000 nM.
On the same count and under the same terms, next, `N[C@@H]1C[C@@H]2C[C@H](c3c(O)ccc(Cl)c3Cl)CN2C1=O` (single isomer, unassigned) [Compound 249]: less than 1000 nM.
